Data set [1] deals with T1, Corticotropin-releasing factor receptor 1 (Homo sapiens, UniProt P34998).
T1 sequence (P34998 whole entry): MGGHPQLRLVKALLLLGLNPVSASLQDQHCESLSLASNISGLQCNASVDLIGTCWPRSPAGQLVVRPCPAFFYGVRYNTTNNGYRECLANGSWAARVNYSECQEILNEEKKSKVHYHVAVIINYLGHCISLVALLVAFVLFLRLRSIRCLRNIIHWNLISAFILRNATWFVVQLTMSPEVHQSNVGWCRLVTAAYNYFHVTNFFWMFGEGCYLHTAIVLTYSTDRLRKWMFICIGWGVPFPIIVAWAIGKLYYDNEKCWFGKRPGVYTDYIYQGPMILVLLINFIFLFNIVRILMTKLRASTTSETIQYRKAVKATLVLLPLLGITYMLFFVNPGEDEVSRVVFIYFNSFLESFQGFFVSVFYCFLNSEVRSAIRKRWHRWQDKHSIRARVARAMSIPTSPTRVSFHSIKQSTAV
Description: Displacement of [125I]CRF from human recombinant CRF1 receptor expressed in CHO cell membrane. The data set is classed as cell membranes. (In a radioligand displacement assay an active substance lowers the binding of a labelled ligand.)

Data set [2] in a line: Plasma clearance in Sprague-Dawley rat at 1 mg/kg, po and 0.4 mg/kg, iv. The data set is classed as ADME, organism-based.
Data set [3] can be described thus: Half life in Sprague-Dawley rat at 1 mg/kg, po and 0.4 mg/kg, iv. The data set is classed as ADME, organism-based. The settings on record: in vivo.
The nature of data set [4]: Oral bioavailability in Sprague-Dawley rat at 1 mg/kg. The data set is classed as ADME, organism-based. The settings on record: in vivo.
Data set [5] can be described thus: Volume of distribution at steady state in Sprague-Dawley rat at 1 mg/kg, po and 0.4 mg/kg, iv. As to conditions: in vivo, read-out: Vdss. The data set is classed as ADME, organism-based.
Data set [6] is described as follows: AUC in Sprague-Dawley rat at 1 mg/kg, po and 0.4 mg/kg, iv. The data set is classed as ADME, organism-based. The settings on record: plasma.

18 compounds from ChEMBL document CHEMBL1139762, “Novel substituted tetrahydrotriazaacenaphthylene derivatives as potent CRF1 receptor antagonists” (Bioorg Med Chem Lett, 2007) can be followed below.

In general, IC50 refers to the concentration that gives 50% inhibition. Usually half-life stands for the time needed for the level to fall by half in the phase considered. Higher therefore signals slow loss. As usually defined, the bioavailability is the share of a dose that reaches the circulation, judged against a reference dose that is usually intravenous. High values mean much systemic uptake, low ones little systemic uptake. In general, AUC refers to concentration integrated over time. Lower therefore signals low exposure.

With `CCC(CC)n1cc2c3c(nc(C)cc31)N(c1ccc(OC)cc1C)CC2`, the half-inhibitory concentration (IC50) in data set [1] is 12.6 nM.

For the compound `CCCC(CCC)n1cc2c3c(nc(C)nc31)N(c1ccc(C#N)cc1C)CC2`, the 50% inhibitory concentration (IC50) in data set [1] was 50.1 nM.

For `CCCC(CCC)n1cc2c3c(nc(C)nc31)N(c1ccc(C(F)(F)F)cc1C(F)(F)F)CC2`, the IC50 in data set [1] was 15.8 nM.

Consider `CCCC(CCC)n1cc2c3c(nc(C)cc31)N(c1ccc(C#N)cc1C)CC2`, for which the clearance in data set [2] came to 54 mL/min/kg. In data set [3], this compound showed a half-life of 402 min. Moreover, the bioavailability in data set [4] is < 5%. Besides, the IC50 in data set [1] was 3.98 nM. For the same compound, the Vd in data set [5] turned out to be 17 L/kg. For the same compound, the AUC in data set [6] is < 15 ng·h/mL.

On to `COCC(COC)Nc1nc(C)nc2c(-c3ccc(Cl)cc3Cl)c(C)nn12`, for which the IC50 in data set [1] was 39.8 nM.

Regarding `CCC(CC)n1cc2c3c(nc(C)cc31)N(c1ccc(OC)c(F)c1)CC2`, the IC50 in data set [1] is 50.1 nM.

As to `CCCC(CCC)n1cc2c3c(nc(C)cc31)N(c1ccc(OC)cc1C)CC2`, the 50% inhibitory concentration (IC50) in data set [1] was 126 nM.

Turning to `CCC(COC)n1cc2c3c(nc(C)cc31)N(c1ccc(C#N)cc1C)CC2` (stereo not drawn), the IC50 in data set [1] was 39.8 nM.

On to `CCC(CC)n1cc2c3c(nc(C)cc31)N(c1ccc(C#N)cc1C)CC2`, for which the IC50 in data set [1] was 12.6 nM.

With `CCC(CC)n1cc2c3c(nc(C)nc31)N(c1ccc(C(F)(F)F)cc1C(F)(F)F)CC2`, the IC50 in data set [1] is 25.1 nM.

`CCC(CC)n1cc2c3c(nc(C)cc31)N(c1ccc(OC(F)(F)F)cc1C)CC2`: the IC50 in data set [1] was 79.4 nM.

In data set [2], `CCC(CC)n1cc2c3c(nc(C)cc31)N(c1ccc(C(F)(F)F)cc1C(F)(F)F)CC2` had a clearance of 21 mL/min/kg. This compound had a half-life in data set [3] of 456 min. Also, the bioavailability in data set [4] was 28%. The IC50 in data set [1] was 126 nM. Besides, the Vd in data set [5] was found to be 6.8 L/kg. Besides, the area under the curve (AUC) in data set [6] was 222 ng·h/mL.

Regarding `CCC(COC)n1cc2c3c(nc(C)cc31)N(c1ccc(OC)cc1C)CC2` (stereo not drawn), the IC50 in data set [1] is 158 nM.

`CCCC(CCC)n1cc2c3c(nc(C)cc31)N(c1ccc(C(F)(F)F)cc1C(F)(F)F)CC2` yielded a clearance in data set [2] of 8 mL/min/kg. This compound had a half-life in data set [3] of 318 min. The bioavailability in data set [4] was 71%. The IC50 in data set [1] was 100 nM. In addition, the Vd in data set [5] worked out at 2.5 L/kg. In addition, in data set [6], the AUC stood at 1480 ng·h/mL.

Regarding `CCC(CC)n1cc2c3c(nc(C)cc31)N(c1ccc(OC)cc1)CC2`, in data set [1], the IC50 is 63.1 nM.

For the compound `CCCC(CCC)n1cc2c3c(nc(C)cc31)N(c1ccc(OC)c(F)c1)CC2`, in data set [2], the clearance came to 47 mL/min/kg. Moreover, the half-life in data set [3] was 516 min. Also, the bioavailability in data set [4] worked out at 37%. In addition, in data set [1], the IC50 is 39.8 nM. In addition, in data set [5], the Vd is 24 L/kg. The AUC in data set [6] was 131 ng·h/mL.

In the case of `CCCCN(CC)c1nc(C)nc2c1c(C)cn2-c1c(C)cc(C)cc1C` [CP-154526], the IC50 in data set [1] was 15.8 nM.

As to `CCCC(CCC)N1CCC2CN(c3ccc(Cl)cc3Cl)c3nc(C)nc1c32` (stereo not drawn), the IC50 in data set [1] is 31.6 nM.
